Drawing on US9504251B2, “Pesticidal compositions and related methods” (Dow AgroSciences LLC, priority 2014, dated 2016), this text covers mortality for 22 compounds.

The subject of assay [1] is Green Peach Aphid (Myzus persicae) (GPA) (MYZUPE). Briefly: Green peach aphid (GPA) foliar spray bioassay on cabbage seedlings. The assay is classed as in vivo. The following applies: 72 h, 200 ppm foliar spray on cabbage seedlings, graded after three days, Abbott-corrected % control, disclosed compounds (TABLE 2), read-out: GPA % Control (or Mortality) rating. On the procedure:
Bioassay for GPA was prepared as follows: Cabbage seedlings grown in 3-inch pots, with 2-3 small (3-5 cm) true leaves, were used as test substrate. The seedlings were infested with 20-50 GPA (adult and nymph stages) one day prior to chemical application. Four pots with individual seedlings were used for each treatment. The tested compounds (2 mg) were dissolved in 2 mL of acetone/methanol (1:1) solvent to form stock solutions of 1000 ppm tested compound. The stock solutions were diluted five times with an aqueous solution containing 0.025% TWEEN® 20 surfactant, which is polyoxyethylene (20) sorbitan monolaurate, to obtain the solution at 200 ppm tested compound. A hand-held aspirator-type sprayer was used for spraying the solution to both sides of cabbage leaves until runoff. The control plants (solvent check) were sprayed with the diluent only containing 20% by volume of acetone/methanol (1:1) solvent. Treated plants were held in a holding room for three days at approximately 25° C. and ambient relative humidity (RH) prior to grading. Evaluation was conducted by counting the number of live aphids per plant under a microscope. Percent control was measured by using Abbott's correction formula (W. S. Abbott, “A Method of Computing the Effectiveness of an Insecticide,” J. Econ. Entomol. 18 (1925), pp. 265-267) as follows. Corrected % Control=100*(X−Y)/X
X=No. of live aphids on solvent check plants and
Y=No. of live aphids on treated plants
(§1) The comparative compounds were tested for insecticidal activities against GPA and WF pests using the same test protocols described above for the disclosed compounds.

In assay [2] the test system is Sweetpotato Whitefly-crawler (Bemisia tabaci) (WF) (BEMITA). Briefly: Sweetpotato whitefly-crawler (WF) foliar spray assay on cotton plants. Type of assay: in vivo. The note with it: 216 h, 200 ppm foliar spray on cotton plants, graded after 9 days, Abbott-corrected % control, disclosed compounds (TABLE 2), read-out: WF % Control (or Mortality) rating. On the procedure: Foliar spray assay for WF was prepared as follows: Cotton plants (Gossypium hirsutum) grown in 3-inch pots, with 1 small (4-5 cm) true leaf, were used as test substrate. The plants were infested with 200-400 whitefly eggs 4-5 days prior to chemical application. Four pots with individual plants were used for each treatment. Tested compounds (2 mg) were dissolved in 1 mL of acetone solvent, forming stock solutions of 2000 ppm tested compound.
The stock solutions were diluted ten times with 0.025% TWEEN® 20 surfactant in H2O (diluents) to obtain the solution at 200 ppm tested compound. A hand-held aspirator-type sprayer was used for spraying the solution to both sides of cotton leaves until runoff. The control plants (solvent check) were sprayed with the diluent only containing 10% by volume of acetone solvent. Treated plants were held in a holding room for 9 days at approximately 25° C. and ambient relative humidity (RH) prior to grading. Evaluation was conducted by counting the number of live 3-4 nymph stage per plant under a microscope. Percent control was measured by using Abbott's correction formula (W. S. Abbott, “A Method of Computing the Effectiveness of an Insecticide,” J. Econ. Entomol. 18 (1925), pp. 265-267) as follows. Corrected % Control=100*(X−Y)/X
X=No. of live nymphs on solvent check plants and
Y=No. of live nymphs on treated plants.
as §1

SMILES strings stand for the structures.

Consider `CSCN1CCc2nn(-c3cccnc3)cc2C1=O` [Compound F20, 5-(Methylsulfanylmethyl)-2-(3-pyridyl)-6,7-dihydropyrazolo[4,3-c]pyridin-4-one], for which the mortality at 200 ppm in assay [1] and in assay [2] was 80 to 100% throughout.

For the compound `O=C1c2cn(-c3cccnc3)nc2CCN1c1cncc(C(F)(F)F)c1` [Compound F21, 2-(3-Pyridyl)-5-[5-(trifluoromethyl)-3-pyridyl]-6,7-dihydropyrazolo[4,3-c]pyridin-4-one], the mortality at 200 ppm in assay [1] and in assay [2] was 80 to 100% in each case.

On to `O=C1c2cn(-c3cccnc3)nc2CCN1c1cccc(OC(F)(F)F)c1` [Compound F22, 2-(3-Pyridyl)-5-[3-(trifluoromethoxy)phenyl]-6,7-dihydropyrazolo[4,3-c]pyridin-4-one], for which the mortality at 200 ppm in assay [1] and in assay [2] was 80 to 100% throughout.

Regarding `COc1ccc(CN2CCc3nn(-c4cccnc4)cc3C2=O)cc1` [Compound F23, 5-[(4-Methoxyphenyl)methyl]-2-(3-pyridyl)-6,7-dihydropyrazolo[4,3-c]pyridin-4-one], the mortality at 200 ppm in assay [1] and in assay [2] was 80 to 100% throughout.

Take `CN1CCc2nn(-c3cccnc3)cc2C1=O` [Compound F28, 5-methyl-2-(pyridin-3-yl)-6,7-dihydro-2H-pyrazolo[4,3-c]pyridin-4(5H)-one]: the results for the mortality at 200 ppm in assay [1] and in assay [2] were 80 to 100% and 0 to 80%, respectively.

Regarding `O=C1c2cn(-c3cccnc3)nc2CCN1Cc1cccc(C(F)(F)F)c1` [Compound F29, 2-(3-Pyridyl)-5-[[3-(trifluoromethyl)phenyl]methyl]-6,7-dihydropyrazolo[4,3-c]pyridin-4-one], the mortality at 200 ppm in assay [1] and in assay [2] was 80 to 100% throughout.

For the compound `C=CCN1CCc2nn(-c3cccnc3)cc2C1=O` [Compound F31, 5-allyl-2-(pyridin-3-yl)-6,7-dihydro-2H-pyrazolo[4,3-c]pyridin-4(5H)-one], the mortality (in general, the percentage killed) at 200 ppm in assay [1] fell in the range of 80 to 100%; in assay [2] it was 0 to 80%.

`O=C1c2cn(-c3cccnc3)nc2CCN1Cc1ccccc1C(F)(F)F` [Compound F32, 2-(3-Pyridyl)-5-[[2-(trifluoromethyl)phenyl]methyl]-6,7-dihydropyrazolo[4,3-c]pyridin-4-one]: the results for the mortality at 200 ppm in assay [1] and in assay [2] were 0 to 80% and 80 to 100%, respectively.

In the case of `O=C1c2cn(-c3cccnc3)nc2CCN1c1ccc(C(F)(F)F)nc1` [Compound F33, 2-(3-Pyridyl)-5-[6-(trifluoromethyl)-3-pyridyl]-6,7-dihydropyrazolo[4,3-c]pyridin-4-one], the mortality at 200 ppm in assay [1] lay in the range of 80 to 100%; in assay [2], 0 to 80%.

With `O=C1c2cn(-c3cccnc3)nc2CCN1c1ncccn1` [Compound F34, 2-(3-Pyridyl)-5-pyrimidin-2-yl-6,7-dihydropyrazolo[4,3-c]pyridin-4-one], the mortality at 200 ppm in assay [1] and in assay [2] was 80 to 100% each time.

As to `O=C1c2cn(-c3cccnc3)nc2CCN1c1ccc(C(F)(F)F)cn1` [Compound F37, 2-(pyridin-3-yl)-5-(5-(trifluoromethyl)pyrdin-2-yl)-6,7-dihydro-2H-pyrazolo[4,3-c]pyridin-4(5H)-one], the mortality at 200 ppm in assay [1] and in assay [2] was 80 to 100% in each case.

On to `O=C1c2cn(-c3cccnc3)nc2CCN1c1cccc(-c2ncccn2)n1` [Compound F38, 2-(3-Pyridyl)-5-(6-pyrimidin-2-yl-2-pyridyl)-6,7-dihydropyrazolo[4,3-c]pyridin-4-one], for which the mortality at 200 ppm is 0 to 80% in assay [1] and under 0% in assay [2].

For the compound `N#CCN1CCc2nn(-c3cccnc3)cc2C1=O` [Compound F39, 2-[4-Oxo-2-(3-pyridyl)-6,7-dihydropyrazolo[4,3-c]pyridin-5-yl]acetonitrile], the mortality at 200 ppm in assay [1] lay within 80 to 100%; in assay [2], 0 to 80%.

As to `CSCCN1CCc2nn(-c3cccnc3)cc2C1=O` [Compound F40, 5-(2-(methylthio)ethyl)-2-(pyridin-3-yl)-6,7-dihydro-2H-pyrazolo[4,3-c]pyridin-4(5H)-one], the mortality at 200 ppm in assay [1] and in assay [2] was 80 to 100% in each case.

Turning to `O=C(CN1CCc2nn(-c3cccnc3)cc2C1=O)N1CCN(C2CCC2)CC1` [Compound F42, 5-[2-(4-Cyclobutylpiperazin-1-yl)-2-oxo-ethyl]-2-(3-pyridyl)-6,7-dihydropyrazolo[4,3-c]pyridin-4-one], the mortality at 200 ppm in assay [1] and in assay [2] was 80 to 100% each time.

In the case of `O=C1c2cn(-c3cccnc3)nc2CCN1c1ccccn1` [Compound F43, 5-(pyridin-2-yl)-2-(pyridin-3-yl)-6,7-dihydro-2H-pyrazolo[4,3-c]pyridin-4(5H)-one], the values for the mortality at 200 ppm in assay [1] and in assay [2] were 80 to 100% and 0 to 80%, respectively.

`O=C1c2cn(-c3cccnc3)nc2CCN1c1cccc(C(F)(F)F)n1` [Compound F46, 2-(3-Pyridyl)-5-[6-(trifluoromethyl)-2-pyridyl]-6,7-dihydropyrazolo[4,3-c]pyridin-4-one]: the values for the mortality at 200 ppm in assay [1] and in assay [2] were 80 to 100% and 0 to 80%, respectively.

As for `O=C1c2cn(-c3cccnc3)nc2CCN1c1cc(C(F)(F)F)ncn1` [Compound F48, 2-(3-Pyridyl)-5-[6-(trifluoromethyl)pyrimidin-4-yl]-6,7-dihydropyrazolo[4,3-c]pyridin-4-one], the mortality at 200 ppm was 80 to 100% in assay [1] and 0 to 80% in assay [2].

On to `O=C1c2cn(-c3cccnc3)nc2CCN1c1ccc(F)cn1` [Compound F49, 5-(5-Fluoro-2-pyridyl)-2-(3-pyridyl)-6,7-dihydropyrazolo[4,3-c]pyridin-4-one], for which the mortality at 200 ppm in assay [1] was in the range of 80 to 100%; in assay [2] it was 0 to 80%.

With `O=C1c2cn(-c3cccnc3)nc2CCN1Cc1ccc(C(F)(F)F)cc1` [Compound F50, 2-(3-Pyridyl)-5-[[4-(trifluoromethyl)phenyl]methyl]-6,7-dihydropyrazolo[4,3-c]pyridine-4-one], the mortality at 200 ppm in assay [1] fell in the range of 80 to 100%; in assay [2], 0 to 80%.

Regarding `CS(=O)(=O)CN1CCc2nn(-c3cccnc3)cc2C1=O` [Compound F51, 5-((methylsulfonyl)methyl)-2-(pyridin-3-yl)-6,7-dihydro-2H-pyrazolo[4,3-c]pyridin-4(5H)-one], the mortality at 200 ppm in assay [1] and in assay [2] was 80 to 100% throughout.

Regarding `O=C(CN1CCc2nn(-c3cccnc3)cc2C1=O)c1ccccc1` [Compound P18, 5-(2-oxo-2-phenylethyl)-2-(pyridin-3-yl)-2,5,6,7-tetrahydro-4H-pyrazolo[4,3-c]pyridin-4-one], the mortality at 200 ppm in assay [1] and in assay [2] was 80 to 100% each time.
